Assay results reported in patent publication US20250074892A1, “CARBONYL BRIDGED HETEROCYCLIC COMPOUND, AND COMPOSITION AND APPLICATION THEREOF” (BEIJING SCITECH-MQ PHARMACEUTICALS LIMITED, priority 2022, published 2025).
Read-outs that look alike come from different tables or passages of the source.

Columns and labels:
[1] = system: HT29 cells; test: Inhibition of cell necrosis (CCK8 method), HT29 cells; format: cell-based, human; conditions: Homo sapiens, HT-29, 16 h, HT29, Human TNF-α/AT-406/Z-VAD-FMK, 16 hours, CCK8
Outline: (§1)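 HT29 (1.2×10^4/well) and L929 (2.0×10^4/well) cells were pretreated 30 min with compound, 9-point 4-fold series from 10 μM in duplicate. Necrosis was induced with human TNF-α 20 ng/mL, AT-406 […] and Z-VAD-FMK 20 μM for 16 h (HT29), or murine TNF-α 20 ng/mL and Z-VAD-FMK 25 μM for 4-8 h (L929). CCK8 viability; IC50 from dose-effect curve.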

[2] = system: L929 cells; test: Inhibition of cell necrosis (CCK8 method), L929 cells; format: cell-based, mouse; conditions: Mus musculus, L929, L929, Murine TNF-α/Z-VAD-FMK, 4-8 hours, CCK8
Outline: as §1

[3] = Rat PK&BBB (pharmacokinetics and brain penetration); format: in vivo, SD rats
Procedure: (§2) In this assay, the pharmacokinetic characteristics and ability to penetrate the blood-brain barrier of the compounds of the present application were assayed after administration of some of the compounds of the present application to SD rats, CD-1 mice or beagle dogs by single oral administration and intravenous injection.
(§3) 1. Intravenous (IV) injection group: an appropriate amount of the assay compound was weighed, and completely dissolved in an appropriate volume of vehicle. The mixture was stirred, vortexed and/or sonicated. Once a solution was obtained, the vehicle was gradually added to a final volume to reach the target concentration. The solution was vortexed, and sonicated to obtain a homogeneous solution. The solution was filtered through a 0.22 m PVDF membrane.
as §3, with “2. Oral (PO)” for “1. Intravenous (IV) injection”, “solution.” for “solution. The solution was filtered through a 0.22 m PVDF membrane.”
(§4) Meanwhile, the IV group was not fasted and the PO group was fasted overnight (>12 hrs) and given food 2 hrs after drug administration. All animals had free access to water. The dosing regimen and pharmacokinetic sampling regimen are given in Table 10 and Table 11 below, respectively.
Rats were administered according to the above protocol, and blood and brain tissue samples were collected and processed at predetermined time points (collection and processing were performed according to conventional methods in the art).
(§5) The brain was weighed and homogenized by adding 4 times of ultrapure water. Six times volume of acetonitrile was added respectively to the whole blood samples and brain homogenate (20 times volume of acetonitrile was added to the whole blood sample of mouse PK). The mixture was vortexed for 1 min and then centrifuged at 4° C., 4500 rpm for 15 min. According to the instrument response, the supernatant was diluted with diluent and the sample was analyzed by LC/MS.
(§6) Pharmacokinetic parameters were calculated using WinNonlin software. The following pharmacokinetic parameters were calculated if appropriate plasma/whole blood drug concentration-time data were available: CL (clearance); Vd (apparent volume of distribution); T1/2 (elimination half-life time); Cmax (peak concentration); Tmax (time to peak); AUC (area under plasma drug concentration-time curve); MRT (mean retention time); F % (bioavailability).

[4] = Beagle PK (pharmacokinetics); format: in vivo, beagle dogs; conditions: whole blood, Beagle dog
Procedure: as §2, §3
as §3, with “2. Oral (PO)” for “1. Intravenous (IV) injection”, “solution.” for “solution. The solution was filtered through a 0.22 m PVDF membrane.”
as §4, §5, §6

[5] = Sprague-Dawley, rat, whole blood, iv, 3 mg/kg, IV 3 mg/kg, read-out: Blood drug concentration
[6] = Sprague-Dawley, rat, whole blood, po, 30 mg/kg, PO 30 mg/kg, read-out: Blood drug concentration
[7] = IV 1 mg/kg, read-out: Blood drug concentration
[8] = PO 3 mg/kg, read-out: Blood drug concentration

O=C(C1CCN(c2cc(-c3cc(OCCCO)ccc3F)ccn2)CC1)N1N=CCC1c1cc(F)cc(F)c1 (racemic) [Example 18, (5-(3,5-difluorophenyl)-4,5-dihydro-1H-pyrazol-1-yl)(1-(4-(2-fluoro-5-(3-hydroxypropoxy)phenyl)pyridin-2-yl)piperidin-4-yl)methanone]
IC50 [1]: ≤ 10 nM | IC50 [2]: 50 to 100 nM | AUC(0-inf) ([3]; SD, whole blood, IV 3 mg/kg): 560 ± 62 ng·h/mL | AUC(0-t) ([3]; SD, whole blood, IV 3 mg/kg): 559 ± 62 ng·h/mL | Vd ([3]; SD, whole blood, IV 3 mg/kg): 8.24 ± 0.68 L/kg | half-life ([3]; SD, whole blood, IV 3 mg/kg): 1.06 ± 0.07 h | clearance ([3]; SD, whole blood, IV 3 mg/kg, read-out: Cl—obs): 90.1 ± 10.7 mL/min/kg | AUC(0-inf) ([3]; SD, whole blood, PO 30 mg/kg): 967 ± 285 ng·h/mL | AUC(0-t) ([3]; SD, whole blood, PO 30 mg/kg): 922 ± 357 ng·h/mL | Cmax ([3]; SD, whole blood, PO 30 mg/kg): 309 ± 103 ng/mL | Tmax ([3]; SD, whole blood, PO 30 mg/kg): 1 h | half-life ([3]; SD, whole blood, PO 30 mg/kg): 3.1 ± 0.24 h | bioavailability ([3]; SD, whole blood, PO 30 mg/kg vs IV 3 mg/kg): 17.3 ± 5.1% | Kp at 2 h ([3]; Sprague-Dawley, brain / whole blood, PO 30 mg/kg, 2 h after administration, read-out: Brain/blood ratio): 1.49 | concentration at 2 h ([3]; Sprague-Dawley, rat, brain, po, 30 mg/kg, PO 30 mg/kg, 2 h after administration, read-out: Brain concentration): 397 ng/g | concentration at 0 h [3, 5]: 0 ng/mL | concentration at 0.083 h ([3]; Sprague-Dawley, rat, whole blood, iv, 3 mg/kg, IV 3 mg/kg, 0.083 hr, read-out: Blood drug concentration): 1170 ± 149 ng/mL | concentration at 0.25 h [3, 5]: 571 ± 31 ng/mL | concentration at 0.5 h [3, 5]: 275 ± 24 ng/mL | concentration at 1 h [3, 5]: 94.7 ± 10.7 ng/mL | concentration at 2 h ([3]; Sprague-Dawley, rat, whole blood, iv, 3 mg/kg, IV 3 mg/kg, 2 hr, read-out: Blood drug concentration): 25.5 ± 4.7 ng/mL | concentration at 4 h [3, 5]: 4.13 ± 0.75 ng/mL | concentration at 7 h [3, 5]: 0.927 ± 0.301 ng/mL | concentration at 0 h [3, 6]: 0 ng/mL | concentration at 0.25 h [3, 6]: 85.6 ± 26.6 ng/mL | concentration at 0.5 h [3, 6]: 239 ± 47 ng/mL | concentration at 1 h [3, 6]: 309 ± 103 ng/mL | concentration at 2 h ([3]; Sprague-Dawley, rat, whole blood, po, 30 mg/kg, PO 30 mg/kg, 2 hr, read-out: Blood drug concentration): 165 ± 90 ng/mL | concentration at 4 h [3, 6]: 68.7 ± 31 ng/mL | concentration at 7 h [3, 6]: 23.5 ± 5.2 ng/mL | concentration at 24 h ([3]; Sprague-Dawley, rat, whole blood, po, 30 mg/kg, PO 30 mg/kg, 24 hr, read-out: Blood drug concentration): 0.557 ng/mL | concentration at 2 h ([3]; Sprague-Dawley, rat, whole blood, po, 30 mg/kg, PO 30 mg/kg, whole blood, 2 h after administration, read-out: Blood drug concentration): 266 ng/mL | AUC(0-inf) ([4]; IV 1 mg/kg): 699 ± 474 ng·h/mL | AUC(0-t) ([4]; IV 1 mg/kg): 682 ± 447 ng·h/mL | Vd ([4]; IV 1 mg/kg): 2.42 ± 0.54 L/kg | half-life ([4]; IV 1 mg/kg): 1.13 ± 0.65 h | concentration at 0 hr [4, 7]: 0 ng/mL | concentration at 0.083 hr ([4]; IV 1 mg/kg, 0.083 hr, read-out: Blood drug concentration): 843 ± 237 ng/mL | concentration at 0.25 hr [4, 7]: 575 ± 222 ng/mL | concentration at 0.5 h [4, 7]: 334 ± 229 ng/mL | concentration at 1 h [4, 7]: 170 ± 148 ng/mL | concentration at 2 h [4, 7]: 57.9 ± 63.2 ng/mL | concentration at 4 h [4, 7]: 26 ± 24.1 ng/mL | concentration at 7 h [4, 7]: 10 ng/mL | clearance ([4]; IV 1 mg/kg, read-out: Cl—obs): 31.4 ± 17.4 mL/min/kg | AUC(0-inf) ([4]; PO 3 mg/kg): 4240 ng·h/mL | AUC(0-t) ([4]; PO 3 mg/kg): 4210 ng·h/mL | Cmax ([4]; PO 3 mg/kg): 1460 ng/mL | Tmax ([4]; PO 3 mg/kg): 1 h | half-life ([4]; PO 3 mg/kg): 4.55 h | bioavailability ([4]; PO 3 mg/kg vs IV 1 mg/kg): 183% | concentration at 0 hr [4, 8]: 0 ng/mL | concentration at 0.25 hr [4, 8]: 469 ng/mL | concentration at 0.5 h [4, 8]: 1060 ng/mL | concentration at 1 h [4, 8]: 1460 ng/mL | concentration at 2 h [4, 8]: 932 ng/mL | concentration at 4 h [4, 8]: 138 ng/mL | concentration at 7 h [4, 8]: 82.4 ng/mL | concentration at 24 h ([4]; PO 3 mg/kg, 24 hr, read-out: Blood drug concentration): 4.41 ng/mL
